Laboratory results: the supplement of paper PMC8671470

The compounds below were run on KG-1 (assay: cell viability (% survival relative to DMSO control, bortezomib = 0%); higher = less cytotoxic). Conditions: 10000 nM; 72 h.
In short: (§1)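 Fifteen myeloid leukaemia cell lines were exposed to compounds at 1, 10, 100, 1000 or 10000 nM in 384-well plates for 72 h at 37 °C and 5% CO2. Viability was read by CellTiter-Glo luminescence and normalised, with vehicle as 100% and a 10 µM positive control as 0%. Values are percent survival averaged over duplicates.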
Compound Cc1c(Cl)cccc1S(=O)(=O)Nc1nc(CC(=O)N2CCN(C)CC2)cs1 [BVT-2733] has a cell viability of 105%. For CCc1oc2ccccc2c1C(=O)c1cc(Br)c(O)c(Br)c1 [Benzbromarone], the cell viability was 102%. CCOC(=O)c1sc(NC(=O)c2ccco2)c(SC#N)c1C [CBR-5884] showed a cell viability of 74.9%. In the case of O=C(/C=C/c1ccc(O)c(O)c1)OCCc1ccccc1 [Caffeic acid phenethyl ester], the cell viability is reported as 23.5%. In the case of CCCCCOC(=O)Nc1nc(=O)n([C@@H]2O[C@H](C)[C@@H](O)[C@H]2O)cc1F [Capecitabine], the cell viability is reported as 86.8%. For Cc1ccc(-c2cc(C(F)(F)F)nn2-c2ccc(S(N)(=O)=O)cc2)cc1 [Celecoxib], the cell viability was 93.8%. O=c1c(-c2ccc(O)cc2)coc2cc(O[C@@H]3O[C@H](CO)[C@@H](O)[C@H](O)[C@H]3O)ccc12 [Daidzin] was tested, and the cell viability was 98.6%. CCN(CC)C(=S)SSC(=S)N(CC)CC [Disulfiram] was tested, and the cell viability was 22%. Work on c1cc(-c2cnn3cc(-c4ccc(OCCN5CCCCC5)cc4)cnc23)ccn1 [Dorsomorphin] yielded a cell viability of 50.8%. C[C@H]1c2cccc(O)c2C(=O)C2C(=O)[C@]3(O)C(=O)C(C(N)=O)C(=O)[C@@H](N(C)C)[C@@H]3[C@@H](O)[C@@H]21 (stereo not given in full) [Doxycycline] was tested, and the cell viability was 87.9%.

These compounds were tested on Mono-Mac-6 in the same assay as above. Conditions: 1 nM; 72 h.
In short: as §1
Cc1c(Cl)cccc1S(=O)(=O)Nc1nc(CC(=O)N2CCN(C)CC2)cs1 [BVT-2733] was tested, and the cell viability was 107%. Compound CCc1oc2ccccc2c1C(=O)c1cc(Br)c(O)c(Br)c1 [Benzbromarone] has a cell viability of 102%. CCOC(=O)c1sc(NC(=O)c2ccco2)c(SC#N)c1C [CBR-5884] gave a cell viability of 94.9%. With O=C(/C=C/c1ccc(O)c(O)c1)OCCc1ccccc1 [Caffeic acid phenethyl ester] the cell viability was 95%. CCCCCOC(=O)Nc1nc(=O)n([C@@H]2O[C@H](C)[C@@H](O)[C@H]2O)cc1F [Capecitabine] showed a cell viability of 100%. With Cc1ccc(-c2cc(C(F)(F)F)nn2-c2ccc(S(N)(=O)=O)cc2)cc1 [Celecoxib] the cell viability was 104%. In the case of O=c1c(-c2ccc(O)cc2)coc2cc(O[C@@H]3O[C@H](CO)[C@@H](O)[C@H](O)[C@H]3O)ccc12 [Daidzin], the cell viability is reported as 90.8%. CCN(CC)C(=S)SSC(=S)N(CC)CC [Disulfiram] was tested, and the cell viability was 91.9%. For c1cc(-c2cnn3cc(-c4ccc(OCCN5CCCCC5)cc4)cnc23)ccn1 [Dorsomorphin], the cell viability was 95.3%. For C[C@H]1c2cccc(O)c2C(=O)C2C(=O)[C@]3(O)C(=O)C(C(N)=O)C(=O)[C@@H](N(C)C)[C@@H]3[C@@H](O)[C@@H]21 (stereo not given in full) [Doxycycline], the cell viability was 103%.

Same assay, conditions: 10 nM; 72 h
In the case of Cc1c(Cl)cccc1S(=O)(=O)Nc1nc(CC(=O)N2CCN(C)CC2)cs1 [BVT-2733], the cell viability is reported as 88%. CCc1oc2ccccc2c1C(=O)c1cc(Br)c(O)c(Br)c1 [Benzbromarone] was tested, and the cell viability was 95.3%. Compound CCOC(=O)c1sc(NC(=O)c2ccco2)c(SC#N)c1C [CBR-5884] has a cell viability of 111%. With O=C(/C=C/c1ccc(O)c(O)c1)OCCc1ccccc1 [Caffeic acid phenethyl ester] the cell viability was 92.7%. Work on CCCCCOC(=O)Nc1nc(=O)n([C@@H]2O[C@H](C)[C@@H](O)[C@H]2O)cc1F [Capecitabine] yielded a cell viability of 90.2%. Work on Cc1ccc(-c2cc(C(F)(F)F)nn2-c2ccc(S(N)(=O)=O)cc2)cc1 [Celecoxib] yielded a cell viability of 101%. Compound O=c1c(-c2ccc(O)cc2)coc2cc(O[C@@H]3O[C@H](CO)[C@@H](O)[C@H](O)[C@H]3O)ccc12 [Daidzin] has a cell viability of 88.2%. CCN(CC)C(=S)SSC(=S)N(CC)CC [Disulfiram] gave a cell viability of 100%. c1cc(-c2cnn3cc(-c4ccc(OCCN5CCCCC5)cc4)cnc23)ccn1 [Dorsomorphin] showed a cell viability of 101%. C[C@H]1c2cccc(O)c2C(=O)C2C(=O)[C@]3(O)C(=O)C(C(N)=O)C(=O)[C@@H](N(C)C)[C@@H]3[C@@H](O)[C@@H]21 (stereo not given in full) [Doxycycline] gave a cell viability of 98.6%.

Same assay, conditions: 100 nM; 72 h
Cc1c(Cl)cccc1S(=O)(=O)Nc1nc(CC(=O)N2CCN(C)CC2)cs1 [BVT-2733] gave a cell viability of 107%. CCc1oc2ccccc2c1C(=O)c1cc(Br)c(O)c(Br)c1 [Benzbromarone] gave a cell viability of 106%. CCOC(=O)c1sc(NC(=O)c2ccco2)c(SC#N)c1C [CBR-5884] gave a cell viability of 102%. Work on O=C(/C=C/c1ccc(O)c(O)c1)OCCc1ccccc1 [Caffeic acid phenethyl ester] yielded a cell viability of 102%. CCCCCOC(=O)Nc1nc(=O)n([C@@H]2O[C@H](C)[C@@H](O)[C@H]2O)cc1F [Capecitabine] gave a cell viability of 113%. For Cc1ccc(-c2cc(C(F)(F)F)nn2-c2ccc(S(N)(=O)=O)cc2)cc1 [Celecoxib], the cell viability was 105%. Work on O=c1c(-c2ccc(O)cc2)coc2cc(O[C@@H]3O[C@H](CO)[C@@H](O)[C@H](O)[C@H]3O)ccc12 [Daidzin] yielded a cell viability of 94.6%. Compound CCN(CC)C(=S)SSC(=S)N(CC)CC [Disulfiram] has a cell viability of 67.9%. c1cc(-c2cnn3cc(-c4ccc(OCCN5CCCCC5)cc4)cnc23)ccn1 [Dorsomorphin] was tested, and the cell viability was 103%. For C[C@H]1c2cccc(O)c2C(=O)C2C(=O)[C@]3(O)C(=O)C(C(N)=O)C(=O)[C@@H](N(C)C)[C@@H]3[C@@H](O)[C@@H]21 (stereo not given in full) [Doxycycline], the cell viability was 109%.

Same assay, conditions: 1000 nM; 72 h
Cc1c(Cl)cccc1S(=O)(=O)Nc1nc(CC(=O)N2CCN(C)CC2)cs1 [BVT-2733] gave a cell viability of 114%. CCc1oc2ccccc2c1C(=O)c1cc(Br)c(O)c(Br)c1 [Benzbromarone] was tested, and the cell viability was 102%. Work on CCOC(=O)c1sc(NC(=O)c2ccco2)c(SC#N)c1C [CBR-5884] yielded a cell viability of 103%. O=C(/C=C/c1ccc(O)c(O)c1)OCCc1ccccc1 [Caffeic acid phenethyl ester] showed a cell viability of 79.1%. In the case of CCCCCOC(=O)Nc1nc(=O)n([C@@H]2O[C@H](C)[C@@H](O)[C@H]2O)cc1F [Capecitabine], the cell viability is reported as 95.6%. Cc1ccc(-c2cc(C(F)(F)F)nn2-c2ccc(S(N)(=O)=O)cc2)cc1 [Celecoxib] was tested, and the cell viability was 104%. Compound O=c1c(-c2ccc(O)cc2)coc2cc(O[C@@H]3O[C@H](CO)[C@@H](O)[C@H](O)[C@H]3O)ccc12 [Daidzin] has a cell viability of 107%. CCN(CC)C(=S)SSC(=S)N(CC)CC [Disulfiram] gave a cell viability of 25.5%. Compound c1cc(-c2cnn3cc(-c4ccc(OCCN5CCCCC5)cc4)cnc23)ccn1 [Dorsomorphin] has a cell viability of 42.8%. C[C@H]1c2cccc(O)c2C(=O)C2C(=O)[C@]3(O)C(=O)C(C(N)=O)C(=O)[C@@H](N(C)C)[C@@H]3[C@@H](O)[C@@H]21 (stereo not given in full) [Doxycycline] was tested, and the cell viability was 94.7%.

Same assay, conditions: 10000 nM; 72 h
Work on Cc1c(Cl)cccc1S(=O)(=O)Nc1nc(CC(=O)N2CCN(C)CC2)cs1 [BVT-2733] yielded a cell viability of 99.6%. With CCc1oc2ccccc2c1C(=O)c1cc(Br)c(O)c(Br)c1 [Benzbromarone] the cell viability was 126%. CCOC(=O)c1sc(NC(=O)c2ccco2)c(SC#N)c1C [CBR-5884] showed a cell viability of 91.1%. In the case of O=C(/C=C/c1ccc(O)c(O)c1)OCCc1ccccc1 [Caffeic acid phenethyl ester], the cell viability is reported as 39.4%. Work on CCCCCOC(=O)Nc1nc(=O)n([C@@H]2O[C@H](C)[C@@H](O)[C@H]2O)cc1F [Capecitabine] yielded a cell viability of 93.1%. Work on Cc1ccc(-c2cc(C(F)(F)F)nn2-c2ccc(S(N)(=O)=O)cc2)cc1 [Celecoxib] yielded a cell viability of 75.3%. O=c1c(-c2ccc(O)cc2)coc2cc(O[C@@H]3O[C@H](CO)[C@@H](O)[C@H](O)[C@H]3O)ccc12 [Daidzin] gave a cell viability of 83.2%. CCN(CC)C(=S)SSC(=S)N(CC)CC [Disulfiram] gave a cell viability of 62.5%. In the case of c1cc(-c2cnn3cc(-c4ccc(OCCN5CCCCC5)cc4)cnc23)ccn1 [Dorsomorphin], the cell viability is reported as 6.23%. In the case of C[C@H]1c2cccc(O)c2C(=O)C2C(=O)[C@]3(O)C(=O)C(C(N)=O)C(=O)[C@@H](N(C)C)[C@@H]3[C@@H](O)[C@@H]21 (stereo not given in full) [Doxycycline], the cell viability is reported as 90.4%.
